From patent US11590139B2, “Substituted aminopurine compounds, compositions thereof, and methods of treatment therewith” (Signal Pharmaceuticals, LLC, priority 2014, dated 2023)
Where two headings read alike, the source gives them in different places.

Tested on: Lox-IMVI melanoma cell line
Assay: Lox-IMVI anti-proliferative assay (growth inhibition, Cell Titer-Glo)
Type: cell-based, human
Conditions: Homo sapiens
In short: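 Luminescence from cellular ATP measured viability at compound addition and again after 72 h of exposure (37 °C, 5% CO2, RPMI + 10% FBS). Doses spanned 0.5 nM to 10 μM in ten 3-fold steps with 0.2% DMSO. Values were fitted as % of DMSO-treated cells by sigmoidal dose-response.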

[1] = IC50 activity level in the cell-based Lox-IMVI anti-proliferative assay, read-out: Activity
[2] = Lox-IMVI anti-proliferative assay, IC50 activity level, read-out: Activity
[3] = Lox-IMVI melanoma cell line, anti-proliferative assay, read-out: Activity (IC50 activity level)

| Compound | IC50 [2] | IC50 [3] | also measured |
| --- | --- | --- | --- |
| CS(=O)(=O)N1CCC(Nc2ncc3nc(Nc4c(F)cc(Cl)cc4F)n([C@H]4CC[C@@H](C(N)=O)CC4)c3n2)CC1 [Example 295, (1s,4s)-4-(8-(4-chloro-2,6-difluorophenylamino)-2-(1-(methylsulfonyl)piperidin-4-ylamino)-9H-purin-9-yl)cyclohexanecarboxamide] | – | – | IC50 [1]: > 1 µM |
| NC(=O)[C@H]1CC[C@@H](n2c(Nc3c(F)cc(Cl)cc3F)nc3cnc(N[C@H]4CCCC[C@H]4O)nc32)CC1 [Example 515, (1R,4s)-4-(8-(4-chloro-2,6-difluorophenylamino)-2-((1S,2R)-2-hydroxycyclohexylamino)-9H-purin-9-yl)cyclohexanecarboxamide] | > 1 µM | – | – |
| NC(=O)[C@H]1CC[C@@H](n2c(Nc3c(F)cc(Cl)cc3Cl)nc3cnc(NC4CCCC4)nc32)CC1 [Example 122, (1s,4s)-4-(2-(cyclopentylamino)-8-(2,4-dichloro-6-fluorophenylamino)-9H-purin-9-yl)cyclohexanecarboxamide] | – | – | IC50 [1]: 0.25 to 0.5 µM |
| COC(=O)N1CCC[C@@H](Nc2ncc3nc(Nc4c(F)cc(Cl)cc4F)n([C@H]4CC[C@@H](C(N)=O)CC4)c3n2)C1 [Example 408, (R)-methyl 3-(9-((1s,4S)-4-carbamoylcyclohexyl)-8-(4-chloro-2,6-difluorophenylamino)-9H-purin-2-ylamino)piperidine-1-carboxylate] | 0.5 to 1 µM | – | – |
| NC(=O)[C@H]1CC[C@@H](n2c(Nc3c(F)cc(Cl)cc3F)nc3cnc(N[C@H]4C[C@H](O)C4)nc32)CC1 [Example 283, (1s,4s)-4-(8-(4-chloro-2,6-difluorophenylamino)-2-((1r,3r)-3-hydroxycyclobutylamino)-9H-purin-9-yl)cyclohexanecarboxamide] | – | – | IC50 [1]: > 1 µM |
| NC(=O)[C@H]1CC[C@@H](n2c(Nc3c(F)cc(F)cc3F)nc3cnc(N[C@@H]4CCOC[C@@H]4F)nc32)CC1 [Example 307, (1S,4s)-4-(2-((3R,4R)-3-fluorotetrahydro-2H-pyran-4-ylamino)-8-(2,4,6-trifluorophenylamino)-9H-purin-9-yl)cyclohexanecarboxamide] | – | – | IC50 [1]: > 1 µM |
| NC(=O)[C@H]1CC[C@@H](n2c(Nc3c(F)cc(Cl)cc3Cl)nc3cnc(N[C@@H]4CCC[C@@H](O)C4)nc32)CC1 [Example 422, (1S,4s)-4-(8-(2,4-dichloro-6-fluorophenylamino)-2-((1R,3R)-3-hydroxycyclohexylamino)-9H-purin-9-yl)cyclohexanecarboxamide] | 0.5 to 1 µM | – | – |
| N#Cc1cc(Cl)c(Nc2nc3cnc(NC4CCOCC4)nc3n2[C@H]2CC[C@@H](C(N)=O)CC2)c(Cl)c1 [Example 278, (1s,4s)-4-(8-(2,6-dichloro-4-cyanophenylamino)-2-(tetrahydro-2H-pyran-4-ylamino)-9H-purin-9-yl)cyclohexanecarboxamide] | – | – | IC50 [1]: < 0.25 µM |
| NC(=O)[C@H]1CC[C@@H](n2c(Nc3c(F)cc(Cl)cc3Cl)nc3cnc(N[C@@H]4CC[C@@H](O)C4)nc32)CC1 [Example 213, (1S,4s)-4-(8-(2,4-dichloro-6-fluorophenylamino)-2-((1R,3R)-3-hydroxycyclopentylamino)-9H-purin-9-yl)cyclohexanecarboxamide] | – | – | IC50 [1]: 0.25 to 0.5 µM |
| C[C@]1(C(N)=O)CC[C@H](n2c(Nc3c(Cl)cc(C#N)cc3Cl)nc3cnc(NC4CCC(F)(F)CC4)nc32)CC1 [Example 479, (1r,4r)-4-(8-(2,6-dichloro-4-cyanophenylamino)-2-(4,4-difluorocyclohexylamino)-9H-purin-9-yl)-1-methylcyclohexanecarboxamide] | > 1 µM | – | – |
| CC(C)Nc1ncc2nc(Nc3c(F)cc(Cl)cc3Cl)n([C@H]3CC[C@@H](C(N)=O)CC3)c2n1 [Example 99, (1s,4s)-4-(8-(2,4-dichloro-6-fluorophenylamino)-2-(isopropylamino)-9H-purin-9-yl)cyclohexanecarboxamide] | – | – | IC50 [1]: 0.25 to 0.5 µM |
| NC(=O)[C@H]1CC[C@@H](n2c(Nc3c(F)cc(Cl)cc3F)nc3cnc(N[C@@H]4CCC[C@@H](O)C4)nc32)CC1 [Example 421, (1S,4s)-4-(8-(4-chloro-2,6-difluorophenylamino)-2-((1R,3R)-3-hydroxycyclohexylamino)-9H-purin-9-yl)cyclohexanecarboxamide] | > 1 µM | – | – |
| C[C@H]1COCC[C@H]1Nc1ncc2nc(Nc3c(F)cc(Cl)cc3Cl)n([C@H]3CC[C@@H](C(N)=O)CC3)c2n1 [Example 505, (1S,4s)-4-(8-(2,4-dichloro-6-fluorophenylamino)-2-((3R,4R)-3-methyltetrahydro-2H-pyran-4-ylamino)-9H-purin-9-yl)cyclohexanecarboxamide] | 0.25 to 0.5 µM | – | – |
| NC(=O)[C@H]1CC[C@@H](n2c(Nc3ccc(Cl)cc3F)nc3cnc(NC4CCCC4)nc32)CC1 [Example 95, (1s,4s)-4-(8-(4-chloro-2-fluorophenylamino)-2-(cyclopentylamino)-9H-purin-9-yl)cyclohexanecarboxamide] | – | – | IC50 [1]: > 1 µM |

Second part, led by results:

| IC50 [2] | IC50 [3] | Compound | also measured |
| --- | --- | --- | --- |
| 0.25 to 0.5 µM | – | C[C@@H]1COCC[C@H]1Nc1ncc2nc(Nc3c(F)cc(Cl)cc3F)n([C@H]3CC[C@@H](C(N)=O)CC3)c2n1 [Example 532, (1S,4s)-4-(8-(4-chloro-2,6-difluorophenylamino)-2-((3S,4R)-3-methyltetrahydro-2H-pyran-4-ylamino)-9H-purin-9-yl)cyclohexanecarboxamide] | – |
| < 0.25 µM | – | N#Cc1cc(F)c(Nc2nc3cnc(NC4CCCOCC4)nc3n2[C@H]2CC[C@@H](C(N)=O)CC2)c(Cl)c1 (stereo partly shown) [Example 543, (1s,4s)-4-(8-(2-chloro-4-cyano-6-fluorophenylamino)-2-(oxepan-4-ylamino)-9H-purin-9-yl)cyclohexanecarboxamide] | – |
| < 0.25 µM | – | C[C@@H]1COCC[C@H]1Nc1ncc2nc(Nc3c(F)cc(F)cc3F)n([C@H]3CC[C@@H](C(N)=O)CC3)c2n1 [Example 533, (1S,4s)-4-(2-((3S,4R)-3-methyltetrahydro-2H-pyran-4-ylamino)-8-(2,4,6-trifluorophenylamino)-9H-purin-9-yl)cyclohexanecarboxamide] | – |
| – | 0.25 to 0.5 µM | C[C@]1(C(N)=O)CC[C@@H](n2c(Nc3c(F)cc(F)cc3Cl)nc3cnc(N[C@H]4CCC[C@H](O)C4)nc32)CC1 [Example 610, (1R,4s)-4-(8-(2-chloro-4,6-difluorophenylamino)-2-((1S,3S)-3-hydroxycyclohexylamino)-9H-purin-9-yl)-1-methylcyclohexanecarboxamide] | – |
| – | > 1 µM | CC(C)N1CCC[C@@H](Nc2ncc3nc(Nc4c(F)cc(Cl)cc4Cl)n([C@H]4CC[C@@H](C(N)=O)CC4)c3n2)C1 [Example 741, (1S,4s)-4-(8-(2,4-dichloro-6-fluorophenylamino)-2-((R)-1-isopropylpiperidin-3-ylamino)-9H-purin-9-yl)cyclohexanecarboxamide] | – |
| – | < 0.25 µM | C[C@]1(C(N)=O)CC[C@@H](n2c(Nc3c(Cl)cc(C#N)cc3Cl)nc3cnc(N[C@H]4CCOC[C@H]4F)nc32)CC1 [Example 761, (1R,4s)-4-(8-(2,6-dichloro-4-cyanophenylamino)-2-((3S,4S)-3-fluorotetrahydro-2H-pyran-4-ylamino)-9H-purin-9-yl)-1-methylcyclohexanecarboxamide] | – |
| – | > 1 µM | C[C@]1(C(N)=O)CC[C@@H](n2c(Nc3c(F)cc(F)cc3F)nc3cnc(N[C@@H]4CCC[C@@H](O)C4)nc32)CC1 [Example 617, (1S,4s)-4-(2-((1R,3R)-3-hydroxycyclohexylamino)-8-(2,4,6-trifluorophenylamino)-9H-purin-9-yl)-1-methylcyclohexanecarboxamide] | – |
| < 0.25 µM | – | N#Cc1cc(Cl)c(Nc2nc3cnc(NC4CCCOCC4)nc3n2[C@H]2CC[C@@H](C(N)=O)CC2)c(Cl)c1 (stereo partly shown) [Example 555, (1s,4s)-4-(8-(2,6-dichloro-4-cyanophenylamino)-2-(oxepan-4-ylamino)-9H-purin-9-yl)cyclohexanecarboxamide] | – |
| – | < 0.25 µM | NC(=O)[C@H]1CC[C@@H](n2c(Nc3c(F)cc(Cl)cc3Cl)nc3cnc(N[C@@H]4CCOC[C@H]4F)nc32)CC1 [Example 728, (1S,4s)-4-(8-(2,4-dichloro-6-fluorophenylamino)-2-((3S,4R)-3-fluorotetrahydro-2H-pyran-4-ylamino)-9H-purin-9-yl)cyclohexanecarboxamide] | – |
| – | < 0.25 µM | C[C@@H]1COCC[C@H]1Nc1ncc2nc(Nc3c(F)cc(Cl)cc3Cl)n([C@H]3CC[C@@](C)(C(N)=O)CC3)c2n1 [Example 717, (1S,4s)-4-(8-(2,4-dichloro-6-fluorophenylamino)-2-((3S,4R)-3-methyltetrahydro-2H-pyran-4-ylamino)-9H-purin-9-yl)-1-methylcyclohexanecarboxamide] | – |
| – | > 1 µM | NC(=O)[C@H]1CC[C@@H](n2c(Nc3c(F)cc(F)cc3F)nc3cnc(N[C@@H]4CCCN(C(=O)Nc5ccccc5)C4)nc32)CC1 [Example 781, (R)-3-(9-((1s,4S)-4-carbamoylcyclohexyl)-8-(2,4,6-trifluorophenylamino)-9H-purin-2-ylamino)-N-phenylpiperidine-1-carboxamide] | – |
| – | < 0.25 µM | C[C@@H]1COCC[C@H]1Nc1ncc2nc(Nc3c(F)cc(Cl)cc3F)n([C@H]3CC[C@@](C)(C(N)=O)CC3)c2n1 [Example 722, (1S,4s)-4-(8-(4-chloro-2,6-difluorophenylamino)-2-((3S,4R)-3-methyltetrahydro-2H-pyran-4-ylamino)-9H-purin-9-yl)-1-methylcyclohexanecarboxamide] | – |
| 0.25 to 0.5 µM | – | NC(=O)[C@H]1CC[C@@H](n2c(Nc3c(F)cc(F)cc3F)nc3cnc(N[C@H]4CCC(F)(F)C4)nc32)CC1 [Example 593, (1R,4s)-4-(2-((S)-3,3-difluorocyclopentylamino)-8-(2,4,6-trifluorophenylamino)-9H-purin-9-yl)cyclohexanecarboxamide] | – |
| – | > 1 µM | CC(=O)N1CCC[C@@H](Nc2ncc3nc(Nc4c(Cl)cc(Cl)cc4Cl)n([C@H]4CC[C@@H](C(N)=O)CC4)c3n2)C1 [Example 710, (1S,4s)-4-(2-((R)-1-acetylpiperidin-3-ylamino)-8-(2,4,6-trichlorophenylamino)-9H-purin-9-yl)cyclohexanecarboxamide] | – |
